Assay results taken from publication PMC8241160, “Enhanced oral bioavailability and anticancer efficacy of fisetin by encapsulating as inclusion complex with HPβCD in polymeric nanoparticles” (Drug Delivery, 2017).
Converted amounts (≈) assume the structure as drawn.

Tests used:
[1] = parameters: method as in Bothiraja et al., 2014; conditions: ref Bothiraja et al., 2014; cited from earlier work
[2] = Apparent solubility of FST and FHIC in aqueous phase; assay type: physicochemical; conditions: PBS
Method: For the determination of apparent solubility, native FST and FHIC were added into 10 ml of PBS and stirred in an orbital shaker for 24 h (Madan et al., [2012]). The solutions were centrifuged (10 000 rpm for 15 min), supernatant was collected and filtered through 0.22 μm filter. After appropriate dilution, FST absorbance was measured using UV-visible spectroscopy at 360 nm. The calibration curve was prepared in the range of 1–20 μg/ml. The observed regression equation was Y = 0.054X + 0.058 with r^2=0.997.

MCF-7 cells = assay: Quantitative apoptosis by flow cytometer (Annexin V-FITC/PI); assay type: cell-based, human; conditions: MCF-7, equivalent to 20 μg/ml FST, 24 h
Method: For the quantitative analysis of apoptosis, cells were treated with FST, FHIC or FHIC-PNP (equivalent to 20 μg/ml FST) for 24 h. Cells were trypsinized, centrifuged at 1200 rpm for 5 min, washed three times with ice-cold PBS and were re-suspended in 500 μl of binding buffer. Thereafter, 5 μl of Annexin V-FITC and 10 μl of PI were added and mixed for 15 min in the dark. The stained cells were analyzed using a flow cytometer (FACS Calibur, BD, San Jose, CA). Data analysis was performed using Cell-Quest software (Becton Dickinson, Franklin Lakes, NJ).

[3] = parameters: method as in Seguin et al., 2013; conditions: ref Seguin et al., 2013; cited from earlier work
[4] = In vitro drug release (dialysis bag method); assay type: physicochemical; conditions: 8 h, PBS pH 7.4 with 0.1% v/v Tween 80, 37 °C
Method: Dialysis bag method was used to carry out the in vitro drug release studies. FST or FHIC-PNP dispersion equivalent to 1 mg of FST, was introduced into the dialysis bag (12 000–14 000 molecular weight cut off, Sigma Aldrich, St. Louis, MO) and placed in 100 ml of phosphate buffer saline pH 7.4 (PBS) containing 0.1%v/v Tween 80 as the release media and kept for stirring at 37 °C at 100 rpm. Samples were withdrawn at different time intervals and replaced with equal volume of media to maintain the sink condition. The collected samples were analyzed for amount of FST content by UV-visible spectrophotometry at 360 nm.

[5] = Encapsulation efficiency (indirect method); assay type: physicochemical; conditions: FST encapsulated in PLGA nanoparticles
Method: The amount of drug loaded in the nanoparticles was determined by indirect method. Nanoparticle dispersion was centrifuged using Centrisart tubes (Sartorius, Bohemia, NY) and supernatant was analyzed for FST content using UV-visible spectrophotometry at 360 nm. The EE was calculated as follows: EE (%) = {(DT – DS)/DT} × 100, where DT=total FST added; DS=FST in the supernatant.

[6] = test system: MCF-7 human breast adenocarcinoma cells; assay: Cell viability assay (MTT assay); assay type: cell-based; conditions: MCF7, MCF-7, 24 h of treatment
Method: The cell viability assay (MTT assay) was performed in MCF-7 human breast adenocarcinoma cells. Cells were seeded at a density of 7 × 10^3 in DMEM medium supplemented with 10% FBS in a 96-well plate and incubated for 24 h at 37 °C in a humidified 5% CO2. The cells were exposed to different concentrations of FST, FHIC and FHIC-PNP for 24 h in order to ascertain the concentration at which 50% of the cells are viable. A volume of 10 μl of MTT solution (5 mg/ml in PBS) was added to each well. The plate was incubated for 4 h and thereafter the contents in the wells were replaced with 100 μl DMSO and again incubated for 10 min. The optical density was measured using a microplate reader (BioTek Instruments, Synergy 4, Winooski, VT) at 570 nm. The cytotoxicity of blank PNP was also studied to determine the toxicity of the nanocarrier system.

[7] = Pharmacokinetic study after oral administration; assay type: in vivo; conditions: 10 mg/kg FST equivalent, C57BL6 mice, plasma
Method: The animal experiments were performed in accordance with the Committee for the Purpose of Control and Supervision of Experiments on Animals (CPCSEA) guidelines after approval from Institutional Animal Ethics Committee (IAEC) of the institution (Approval no. IICT/39/2016). Female C57BL6 mice weighing from 18 to 22 g were kept for overnight fasting before the start of the experiment and allowed free access of water ad libitum.
C57BL6 mice were divided into two groups containing 27 animals in each. Animals in group I received pure FST (as 1% gum acacia suspension) orally at a dose of 10 mg/kg body weight and the animals in group II received FHIC-PNP (FST equivalent to 10 mg/kg) orally. At predetermined time intervals, blood samples were collected from retro-orbital plexus into centrifuge tube containing EDTA. Samples were centrifuged at 4000 rpm for 15 min and supernatant (plasma) was collected and stored at −80 °C for further analysis by LC/MS.
Plasma samples were extracted by solvent mixture composed of chloroform and acetonitrile (1:1). The mixture was kept in shaker for 10 min and the supernatant layer was transferred into another Eppendorf tubes. Evaporation of organic solvent was done on ScanVac speed vacuum concentrator and 100 μl of acetonitrile was added and vortexed. A volume of 2 μl aliquots of sample solution were injected into LC–MS/MS for analysis. The linearity of the method was evaluated by analyzing spiked calibration samples using six calibration standards over a calibration range of 0.5–800 ng/ml in mice plasma.
Analysis was carried out on U-HPLC instrument (Agilent Technologies, Santa Clara, CA) equipped with a quaternary pump, a degasser, a diode array detector, an auto sampler and a column compartment. Mass spectrometric analysis was carried out on an Agilent 6420 triple quadrupole (Agilent Technologies, Santa Clara, CA) equipped with electrospray ionization (ESI) source. The data acquisition was under the control of Mass Hunter software.
FST and baicalein, an internal standard (IS), were separated on Agilent Eclipse plus C18 (2.1 mm × 50 mm, 1.8 μm) at constant temperature of 40 °C. The initial mobile phase consisted of 10 mM of ammonium formate (pH 3.5) and acetonitrile with gradient elution at a flow rate of 0.4 ml/min. Elution was in a gradient, the acetonitrile was kept constant at 2% in 0.5 min, and then increased to 98% in 1.5 min and maintained at 98% for another 2 min, then decreased to 2% in 3.8 min and maintained for 2.2 min. The total run time of the analysis was 5 min. After each injection, the sample manager was cleaned by a needle wash process with methanol–water (70/30 v/v). The typical operating source condition for MS scan in negative ion ESI mode were optimized as follow: collision energy 33 eV, cell accelerator voltage 7 eV, fragmentor 135, dwell time 200 ms, gas temperature 280 °C, gas flow 10 l/min and nebulizer 50 psi. The MRM modes of ions with m/z 284.8 → 134.8 for FST and m/z 268.8 → 166.8 for IS (baicalein) were utilized for quantitative analysis.

O=c1c(O)c(-c2ccc(O)c(O)c2)oc2cc(O)ccc12 [FST, 2-(3,4-dihydroxyphenyl)-3,7-dihydroxychromen-4-one]
aqueous solubility [1]: 10.45 µg/mL (≈ 36.5 µM) | solubility at 24 h [2]: 5.25 µg/mL (≈ 18.3 µM) | apoptosis induction (MCF-7 cells): 21.8% | oral bioavailability [3]: 44.1% | FST released in vitro [4]: about 93% | encapsulation/entrapment efficiency (EE) ([5]; listed as native FST): 47% | encapsulation/entrapment efficiency (EE) ([5]; listed as pure FST): 47.3% | IC50 [6]: 77.8 ± 2.12 µg/mL | Cl [7]: 2022.59 ± 0.02 mL/h | AUC(0-inf) ([7]; female, mouse): 100 ± 2.91 ng·h/mL | AUC(0-t) ([7]; female, mouse): 80.4 ± 3.61 ng·h/mL | Cmax ([7]; female, mouse): 69.3 ± 4.16 ng/mL | MRT ([7]; female, mouse): 3.82 ± 2.15 h | Tmax ([7]; female, mouse): 0.25 ± 1.2 h | half-life ([7]; female, mouse): 3.26 ± 0.9 h
